According to patent publication US10988449B2, “Isoxazole derivatives as nuclear receptor agonists and uses thereof” (IL DONG PHARMACEUTICAL CO., LTD., priority 2017, dated 2021):
Structures can show the parent of a compound that is named as a salt.

Target: T1, human FXR (Homo sapiens, UniProt Q96RI1)
T1 construct: expressed in transfected cells
T1 sequence (Q96RI1 1-486): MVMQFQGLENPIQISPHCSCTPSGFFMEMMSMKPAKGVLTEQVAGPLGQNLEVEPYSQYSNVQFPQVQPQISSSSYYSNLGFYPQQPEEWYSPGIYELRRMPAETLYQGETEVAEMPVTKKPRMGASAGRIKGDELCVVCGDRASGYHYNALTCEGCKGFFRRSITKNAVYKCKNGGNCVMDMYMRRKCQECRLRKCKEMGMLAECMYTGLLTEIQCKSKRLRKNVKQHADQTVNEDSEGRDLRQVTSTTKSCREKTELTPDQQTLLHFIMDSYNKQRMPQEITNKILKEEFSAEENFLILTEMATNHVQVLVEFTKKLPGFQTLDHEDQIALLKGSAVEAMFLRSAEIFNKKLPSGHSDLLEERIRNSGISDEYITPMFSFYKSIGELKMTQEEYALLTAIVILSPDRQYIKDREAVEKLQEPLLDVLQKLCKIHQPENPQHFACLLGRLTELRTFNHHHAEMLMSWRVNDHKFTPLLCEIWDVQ
Assay: FXR reporter assay (cellular FXR activities)
Assay type: cell-based
Details: for EC50: FXR reporter cells, 24 hours incubation, luciferase, read-out: Reporter Cell EC50; for Emax: read-out: Emax (%) (GW4064 Emax = 100%)
Experimental: FXR reporter assay was performed to measure cellular FXR activities of the compounds in the present invention. FXR reporter cells with high expression level of human FXR were seeded into 96-well cell culture plates, and incubated for 1-2 hours at 37° C. under 5% CO2 atmosphere. The invented compounds diluted in DMSO with various concentrations were added to the 96-well cell culture plates, and they were incubated for 24 hours at 37° C. under 5% CO2 atmosphere. After incubation, we calculate EC50 by using luciferase substrate.

Compound | EC50 | Emax
O=C(Nc1cc(C#Cc2ccc(OCc3c(-c4c(Cl)cccc4Cl)noc3C3CC3)cc2Cl)cc(C(=O)O)c1)OC1CC1 [Compound I-76, 3-((2-chloro-4-((5-cyclopropyl-3-(2,6-dichlorophenyl)isoxazol-4-yl)methoxy)phenyl)ethynyl)-5-((cyclopropoxycarbonyl)amino)benzoic acid] | ≤ 0.02 µM | > 100%
O=C(O)c1cccc(C#Cc2ccc(OCc3c(-c4c(Cl)cccc4Cl)noc3C3CC3)c(Cl)c2Cl)c1 [Compound I-69, 3-((2,3-dichloro-4-((5-cyclopropyl-3-(2,6-dichlorophenyl)isoxazol-4-yl)methoxy)phenyl)ethynyl)benzoic acid] | 0.2 to 1 µM | > 100%
CC(C)c1nc2c(C(=O)O)cc(C#Cc3ccc(OCc4c(-c5c(Cl)cccc5Cl)noc4C4CC4)cc3Cl)cc2o1 [Compound I-115, 6-((2-chloro-4-((5-cyclopropyl-3-(2,6-dichlorophenyl)isoxazol-4-yl)methoxy)phenyl)ethynyl)-2-isopropylbenzo[d]oxazole-4-carboxylic acid] | 0.02 to 0.06 µM | 97%
O=C(O)c1cccc(C#Cc2ccc(OCc3c(-c4ccccc4OC(F)(F)F)noc3C3CC3)cc2Cl)c1 [Compound I-88, 3-((2-chloro-4-((5-cyclopropyl-3-(2-(trifluoromethoxy)phenyl)isoxazol-4-yl)methoxy)phenyl)ethynyl)benzoic acid] | 0.2 to 1 µM | 97%
O=C(O)c1cc(C#Cc2ccc(OCc3c(-c4c(Cl)cccc4Cl)noc3C3CC3)cc2Cl)c2ccn(CCO)c2c1 [Compound I-97, 4-((2-chloro-4-((5-cyclopropyl-3-(2,6-dichlorophenyl)isoxazol-4-yl)methoxy)phenyl)ethynyl)-1-(2-hydroxyethyl)-1H-indole-6-carboxylic acid] | ≤ 0.02 µM | 94%
O=C(O)c1cc(C#Cc2ccc(OCc3c(-c4c(Cl)cccc4Cl)noc3C3CC3)cc2Cl)c2ccn(Cc3ccncc3)c2c1 [Compound I-94, 4-((2-chloro-4-((5-cyclopropyl-3-(2,6-dichlorophenyl)isoxazol-4-yl)methoxy)phenyl)ethynyl)-1-(pyridin-4-ylmethyl)-1H-indole-6-carboxylic acid] | 0.06 to 0.2 µM | > 100%
O=C(O)c1cc(C#Cc2ccc(OCc3c(-c4c(Cl)cccc4Cl)noc3C3CC3)cc2Cl)cc(N2CCNCC2)c1 [Compound I-59, 3-((2-chloro-4-((5-cyclopropyl-3-(2,6-dichlorophenyl)isoxazol-4-yl)methoxy)phenyl)ethynyl)-5-(piperazin-1-yl)benzoic acid hydrochloride] | 0.2 to 1 µM | 90%
CCOC(=O)Nc1cc(C#Cc2ccc(OCc3c(-c4c(Cl)cccc4Cl)noc3C3CC3)cc2Cl)cc(C(=O)OC)c1 [Compound I-8, methyl 3-((2-chloro-4-((5-cyclopropyl-3-(2,6-dichlorophenyl)isoxazol-4-yl)methoxy)phenyl)ethynyl)-5-((ethoxycarbonyl)amino)benzoate] | > 1 µM | 98%
Cc1nc2cc(C#Cc3ccc(OCc4c(-c5c(Cl)cccc5Cl)noc4C4CC4)cc3Cl)cc(C(=O)O)c2o1 [Compound I-103, 5-((2-chloro-4-((5-cyclopropyl-3-(2,6-dichlorophenyl)isoxazol-4-yl)methoxy)phenyl)ethynyl)-2-methylbenzo[d]oxazole-7-carboxylic acid] | ≤ 0.02 µM | > 100%
O=C(Nc1cc(C#Cc2ccc(OCc3c(-c4c(Cl)cccc4Cl)noc3C3CC3)cc2Cl)cc(C(=O)O)c1)OCCO [Compound I-81, 3-((2-chloro-((5-cyclopropyl-3-(2,6-dichlorophenyl)isoxazol-4-yl)methoxy)phenyl)ethynyl)-5-(((2-hydroxyethoxy)carbonyl)amino)benzoic acid] | 0.2 to 1 µM | > 100%
CCCc1nc2cc(C#Cc3ccc(OCc4c(-c5c(Cl)cccc5Cl)noc4C4CC4)cc3Cl)cc(C(=O)O)c2o1 [Compound I-105, 5-((2-chloro-4-((5-cyclopropyl-3-(2,6-dichlorophenyl)isoxazol-4-yl)methoxy)phenyl)ethynyl)-2-propylbenzo[d]oxazole-7-carboxylic acid] | ≤ 0.02 µM | > 100%

Further lines, results first:

EC50 | Emax | Compound
0.2 to 1 µM | 98% | O=C(O)c1cc(C#Cc2ccc(OCc3c(-c4c(Cl)cccc4Cl)noc3C3CC3)cc2Cl)cc(C(=O)O)c1 [Compound I-84, 5-((2-chloro-4-((5-cyclopropyl-3-(2,6-dichlorophenyl)isoxazol-4-yl)methoxy)phenyl)ethynyl)isophthalic acid]
0.06 to 0.2 µM | > 100% | COc1c(N)cc(C#Cc2ccc(OCc3c(-c4c(Cl)cccc4Cl)noc3C3CC3)cc2Cl)cc1C(=O)O [Compound I-62, 3-amino-5-((2-chloro-4-((5-cyclopropyl-3-(2,6-dichlorophenyl)isoxazol-4-yl)methoxy)phenyl)ethynyl)-2-methoxybenzoic acid]
0.2 to 1 µM | 88% | CCNCc1cc(C#Cc2ccc(OCc3c(-c4c(Cl)cccc4Cl)noc3C3CC3)cc2Cl)cc(C(=O)O)c1 [Compound I-45, 3-((2-chloro-4-((5-cyclopropyl-3-(2,6-dichlorophenyl)isoxazol-4-yl)methoxy)phenyl)ethynyl)-5-((ethylamino)methyl)benzoic acid]
0.02 to 0.06 µM | 83% | COc1cc(C#Cc2ccc(OCc3c(-c4c(Cl)cccc4Cl)noc3C3CC3)cc2Cl)cc(C(=O)O)c1 [Compound I-40, 3-((2-chloro-4-((5-cyclopropyl-3-(2,6-dichlorophenyl)isoxazol-4-yl)methoxy)phenyl)ethynyl)-5-methoxybenzoic acid]
0.2 to 1 µM | 89% | O=C(O)c1ccc(C#Cc2ccc(OCc3c(-c4c(Cl)cccc4Cl)noc3C3CC3)cc2Cl)nc1 [Compound I-17, 6-((2-chloro-4-((5-cyclopropyl-3-(2,6-dichlorophenyl)isoxazol-4-yl)methoxy)phenyl)ethynyl)nicotinic acid]
0.2 to 1 µM | > 100% | O=C(O)c1cc(C#Cc2ccc(OCc3c(-c4c(Cl)cccc4Cl)noc3C3CC3)cc2Cl)cc2ncoc12 [Compound I-102, 5-((2-chloro-4-((5-cyclopropyl-3-(2,6-dichlorophenyl)isoxazol-4-yl)methoxy)phenyl)ethynyl)benzo[d]oxazole-7-carboxylic acid]
0.2 to 1 µM | > 100% | CN(C)c1ccc(C(=O)O)cc1C#Cc1ccc(OCc2c(-c3c(Cl)cccc3Cl)noc2C2CC2)cc1Cl [Compound I-26, 3-((2-chloro-4-((5-cyclopropyl-3-(2,6-dichlorophenyl)isoxazol-4-yl)methoxy)phenyl)ethynyl)-4-(dimethylamino)benzoic acid]
0.06 to 0.2 µM | 93% | CN(C)c1cc(C(=O)O)ccc1C#Cc1ccc(OCc2c(-c3c(Cl)cccc3Cl)noc2C2CC2)cc1Cl [Compound I-22, 4-((2-chloro-4-((5-cyclopropyl-3-(2,6-dichlorophenyl)isoxazol-4-yl)methoxy)phenyl)ethynyl)-3-(dimethylamino)benzoic acid]
0.2 to 1 µM | 75% | O=C(O)c1cc(C#Cc2ccc(OCc3c(-c4c(Cl)cccc4Cl)noc3C3CC3)cc2Cl)c2nc[nH]c2c1 [Compound I-90, 4-((2-chloro-4-((5-cyclopropyl-3-(2,6-dichlorophenyl)isoxazol-4-yl)methoxy)phenyl)ethynyl)-1H-benzo[d]imidazole-6-carboxylic acid]
